From PMC11233931, “Remodeling tumor‐associated macrophage for anti‐cancer effects by rational design of irreversible inhibition of mitogen‐activated protein kinase‐activated protein kinase 2” (MedComm, 2024) come the findings set out here.

Structures are written as SMILES.

For data set [1], the system named is TNF-α, IL-6 and IL-1β mRNA in RAW264.7 macrophage cell line. The data set is described as follows: RT-PCR of cytokine mRNA in LPS-stimulated RAW264.7 macrophages. It counts as cell-based, mouse. As to conditions: 3 h pre-treatment, LPS 100 ng/mL 3 h. From the text: MK2 is recognized for inducing the production of pathological cytokines that fuel inflammation, including IL‐6, TNF‐α, and IL‐1β. These cytokines are the classic downstream target gene of MK2 and are identified as significant contributors to the risk of inflammation‐driven cancer,[34], [35], [36] such as colorectal cancer and hepatocellular carcinoma. Therefore, we assessed the transcriptional levels of these typical downstream cytokines in human monocytic THP‐1 cell‐line‐derived macrophage and the mouse RAW264.7 macrophage cell line under the influence of compound 11. […] Taken together, our findings corroborate that compound 11 effectively impedes the transcription and production of these key MK2 downstream pro‐inflammatory cytokines.
FIGURE 4 Targeting cellular MK2 signaling with irreversible inhibition by compound 11. […] (C) The inhibitory effects of compound 11 on TNF‐α and IL‐6 production in LPS‐stimulated RAW264.7 macrophages for 24 h, measured by ELISA. […]
Total RNA was extracted from cultured cells using the EZ‐press RNA Purification Kit (EZBioscience). Complementary DNA was synthesized using the ABScript III RT Master Mix for qPCR with gDNA remover (ABclonal Technology) and was quantified with primers listed in Table S5. The relative mRNA expression levels were quantified through qPCR using the SYBR green gene expression assay (ABclonal Technology).

Data set [2] in a line: Cell viability assay (CCK-8), MC38. It is filed as cell-based. The conditions noted are these: mouse, MC38 cells (colorectal carcinoma), MC38, murine colorectal carcinoma, read-out: IC50 (μM) mean ± SD, cytotoxicity. The protocol: (§1) In cellular experiments, cells are seeded into either 6-well or 96-well plates and incubated overnight, proceeding with treatments as described in the figure legends or methods section. The cell inoculation numbers are outlined as follows: For assays measuring cell viability, between 3,000 to 5,000 cells are seeded per well in 96-well plates. For other cellular assays, the seeding density ranges from 5×10^5 to 1×10^6 cells per well in 6-well plates.
(§2) Cells was plated into 96-well plates and incubated overnight prior to introduction of varying concentrations of compounds or control solvent. Following a 72-hour exposure period, cell viability was determined using a Cell Counting Kit-8 assay (Life-iLab, China). Dose-response curves were fitted using a four-parameter method facilitated by SoftMax Pro, which was subsequently used for the computation of IC50 values.

Data set [3] can be described thus: Cell viability assay (CCK-8), HCC44. It is filed as cell-based. The conditions noted are these: HCC44 cells (non-small cell lung carcinoma), HCC44, human non-small cell lung carcinoma, read-out: IC50 (μM) mean ± SD, cytotoxicity. How it is done: as §1, §2
Data set [4] relates to p-Hsp27 (Ser82) and p-MK2 (T334) in THP-1 derived macrophages. The data set is described as follows: Western blot of MK2 signaling in LPS-stimulated THP-1 derived macrophages. It counts as cell-based, human. As to conditions: 1 h preincubation, LPS 100 ng/mL 30 min. The protocol:
FIGURE 4 Targeting cellular MK2 signaling with irreversible inhibition by compound 11. (A and B) RT‐PCR analysis of IL‐1β, TNF‐α, and IL‐6 expression in Lipopolysaccharides (LPS)‐stimulated THP‐1 (A) and RAW264.7 (B) Cells, with pre‐treatment of compound 11 for 3 h followed by LPS (3 h) stimulation. (C) The inhibitory effects of compound 11 on TNF‐α and IL‐6 production in LPS‐stimulated RAW264.7 macrophages for 24 h, measured by ELISA. (D and E) Compound 11, alongside CC‐99677 and PF‐3644022, suppressed MK2 pathway activation, validated through western blot analysis post‐LPS stimulation. Cells were preincubated with the specified compounds for 1 h prior to LPS stimulation (100 ng/mL, 30 min). (F) Distinguishes the mode of action between compound 11 and CC‐99677. The complex structure of a small molecule and MK2 (3R2Y) with the same parent nucleus as compound 11 is shown in cyans, and the complex structure of a small molecule and MK2 (3FYJ) with the same parent nucleus as CC‐99677 is shown in orange. (G–I) The effect of indicated inhibitor on Hsp27 phosphorylation following inhibitor washout. Cells were pretreated with indicated compounds for 1 h and then washed to remove free compound and incubated for a further indicated time before activation with LPS. In (A–C), LPS (100 ng/mL) served as the stimulation control, while untreated cells were the baseline control. The data represent as mean ± SD from triplicates, with statistical analysis conducted via one‐way analysis of variance (ANOVA) (^## p < 0.01, ^### p < 0.001 vs. stimulation control; ^***p < 0.001 vs. baseline control).
Next, the efficacy of compound 11 in cellular MK2 signaling inhibition was evaluated by examining both p‐MK2 and p‐Hsp27 at Ser82 levels, the latter being a direct downstream substrate of p‐MK2. […] We try to explore this interesting phenomenon by superimposing the complex crystal structure (3FYJ) that harboring the same skeleton as CC‐99677 (Figure 4F). […] In that way, CC‐99677 binding to MK2 kinase after pre‐incubation with cells and after LPS stimulation may cause the difference in the spatial conformation of MK2 kinase domain, which may make p38 cannot properly bind to MK2, resulting in a decrease in the phosphorylation of MK2.
After the treatment outlined in the figure legends, cells were lysed using 1× sodium dodecyl sulfate (SDS) solution. The lysates were then subjected to SDS‐polyacrylamide gel electrophoresis for separation, followed by transferring onto nitrocellulose membranes. […] Protein bands were detected using an enhanced chemiluminescence detection reagent (Thermo Fisher Scientific).

Turning to `C=CC(=O)Nc1cc(-c2cc(-c3cc4c([nH]3)CCNC4=O)ccn2)ccc1OC(F)(F)F` [compound 11], the “effect on LPS-induced TNF-α, IL-6 and IL-1 mRNA expression” value in data set [1] was “significantly inhibited”. Moreover, the IC50 at 72 h was found to be 48.3 ± 10.5 µM in data set [2] and 32.3 ± 3.3 µM in data set [3]. Besides, the “effect on MK2 phosphorylation at T334 site” value in data set [4] is given as “did not inhibit”. The “effect on phosphorylation of Hsp27 (Ser82)” value in data set [4] is recorded as “significantly inhibited”.

As usually defined, the IC50 is the concentration that gives 50% inhibition.
